Measurements: the kinase profiling compilation of Christmann-Franck et al. (2016)

Tests used:
Experiment in all cases: radiometric filter-binding kinase assay
[1] = tested on: AKT2 (human), P31751 [S474D]
BRSK1 (human) = BRSK1 (human) (UniProt Q8TDC3); conditions: compound 0.1 µM
CAMKK2 (human) = CAMKK2 (human) (UniProt Q96RR4)
CLK2 (human) = CLK2 (human) (UniProt P49760); conditions: compound 0.1 µM
CSK (human) = CSK (human) (UniProt P41240)
CSNK1D (human) = CSNK1D (human) (UniProt P48730)
DYRK3 (human) = DYRK3 (human) (UniProt O43781)
EPHA2 (human) = EPHA2 (human) (UniProt P29317)
FGFR1 (human) = FGFR1 (human) (UniProt P11362)
FLT1 (human) = FLT1 (human) (UniProt P17948)
GSK3B (human) = GSK3B (human) (UniProt P49841)
HIPK1 (human) = HIPK1 (human) (UniProt Q86Z02); conditions: compound 0.1 µM
HIPK3 (human) = HIPK3 (human) (UniProt Q9H422); conditions: compound 0.1 µM
IGF1R (human) = IGF1R (human) (UniProt P08069)
INSR (human) = INSR (human) (UniProt P06213)
IRAK4 (human) = IRAK4 (human) (UniProt Q9NWZ3)
JAK2 JH1 JH2 (human) = JAK2 JH1 JH2 (human) (UniProt O60674); conditions: compound 0.1 µM
LCK (mouse) = conditions: accession and sequence are those of the human protein
MAP3K1 (human) = MAP3K1 (human) (UniProt Q13233); conditions: compound 0.1 µM
MAP3K7 TAB1 (human) = MAP3K7 TAB1 (human) (UniProt Q15750+O43318); conditions: compound 0.1 µM
MAPK11 (human) = MAPK11 (human) (UniProt Q15759)
MAPK14 (human) = MAPK14 (human) (UniProt Q16539)
MAPK15 (human) = MAPK15 (human) (UniProt Q8TD08)
MAPKAPK5 (human) = MAPKAPK5 (human) (UniProt Q8IW41)
MARK1 (human) = MARK1 (human) (UniProt Q9P0L2); conditions: compound 0.1 µM
MELK (human) = MELK (human) (UniProt Q14680)
MINK1 (human) = MINK1 (human) (UniProt Q8N4C8)
NTRK1 (human) = NTRK1 (human) (UniProt P04629); conditions: compound 0.1 µM
PRKCZ (human) = PRKCZ (human) (UniProt Q05513)
RIPK2 (human) = RIPK2 (human) (UniProt O43353); conditions: compound 0.1 µM
ROCK2 (rat) = conditions: accession and sequence are those of the human protein
RPS6KA3 KD1 KD2 (human) = RPS6KA3 KD1 KD2 (human) (UniProt P51812)
SRC (human) = SRC (human) (UniProt P12931)
[2] = target: STK11 CAB39 STRADA (human) (UniProt Q9Y376+Q7RTN6+Q15831)
TAOK1 (human) = TAOK1 (human) (UniProt Q7L7X3); conditions: compound 0.1 µM

Chain of CSNK1D (human) (P48730 whole entry, looked up): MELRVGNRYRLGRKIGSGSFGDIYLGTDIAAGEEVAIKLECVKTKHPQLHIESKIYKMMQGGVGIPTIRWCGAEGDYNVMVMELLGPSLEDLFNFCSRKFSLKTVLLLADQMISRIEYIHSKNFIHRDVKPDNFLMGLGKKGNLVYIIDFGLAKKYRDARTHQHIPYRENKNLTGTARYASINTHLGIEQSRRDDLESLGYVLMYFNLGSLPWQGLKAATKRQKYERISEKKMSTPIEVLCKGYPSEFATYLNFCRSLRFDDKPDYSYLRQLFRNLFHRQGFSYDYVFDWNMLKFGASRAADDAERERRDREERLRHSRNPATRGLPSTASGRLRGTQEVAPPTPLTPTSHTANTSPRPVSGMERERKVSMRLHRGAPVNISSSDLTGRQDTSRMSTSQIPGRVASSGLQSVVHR
Chain of MAPKAPK5 (human) (Q8IW41 whole entry, looked up): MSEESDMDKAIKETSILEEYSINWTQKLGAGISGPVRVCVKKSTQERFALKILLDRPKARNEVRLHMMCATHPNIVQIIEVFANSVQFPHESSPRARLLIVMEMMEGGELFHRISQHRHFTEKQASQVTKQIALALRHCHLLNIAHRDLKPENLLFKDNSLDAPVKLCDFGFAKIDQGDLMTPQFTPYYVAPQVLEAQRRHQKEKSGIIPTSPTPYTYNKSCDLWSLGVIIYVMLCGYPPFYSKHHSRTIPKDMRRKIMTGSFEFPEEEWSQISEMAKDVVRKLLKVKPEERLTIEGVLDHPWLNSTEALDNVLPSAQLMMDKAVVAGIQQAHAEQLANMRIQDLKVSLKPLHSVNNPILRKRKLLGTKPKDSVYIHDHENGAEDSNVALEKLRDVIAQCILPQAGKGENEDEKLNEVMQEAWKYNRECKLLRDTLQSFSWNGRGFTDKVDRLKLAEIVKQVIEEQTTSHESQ
Chain of PRKCZ (human) (Q05513 whole entry, looked up): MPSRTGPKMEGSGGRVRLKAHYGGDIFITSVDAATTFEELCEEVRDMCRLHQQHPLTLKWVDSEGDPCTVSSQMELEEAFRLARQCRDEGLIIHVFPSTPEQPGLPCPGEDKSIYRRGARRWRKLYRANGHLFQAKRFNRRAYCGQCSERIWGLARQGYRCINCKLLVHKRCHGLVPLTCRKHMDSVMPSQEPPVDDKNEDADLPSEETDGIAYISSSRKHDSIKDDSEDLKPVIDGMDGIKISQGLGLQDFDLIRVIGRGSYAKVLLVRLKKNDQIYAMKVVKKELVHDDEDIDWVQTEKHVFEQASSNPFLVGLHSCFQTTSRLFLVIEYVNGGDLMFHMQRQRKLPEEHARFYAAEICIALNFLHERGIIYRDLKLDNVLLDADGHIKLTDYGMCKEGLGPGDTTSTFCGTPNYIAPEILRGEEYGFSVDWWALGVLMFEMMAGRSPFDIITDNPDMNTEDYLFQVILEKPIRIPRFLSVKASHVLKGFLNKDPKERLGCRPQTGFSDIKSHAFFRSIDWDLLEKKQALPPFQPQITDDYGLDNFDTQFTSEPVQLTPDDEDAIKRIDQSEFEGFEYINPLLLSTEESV
Chain of SRC (human) (P12931 whole entry, looked up): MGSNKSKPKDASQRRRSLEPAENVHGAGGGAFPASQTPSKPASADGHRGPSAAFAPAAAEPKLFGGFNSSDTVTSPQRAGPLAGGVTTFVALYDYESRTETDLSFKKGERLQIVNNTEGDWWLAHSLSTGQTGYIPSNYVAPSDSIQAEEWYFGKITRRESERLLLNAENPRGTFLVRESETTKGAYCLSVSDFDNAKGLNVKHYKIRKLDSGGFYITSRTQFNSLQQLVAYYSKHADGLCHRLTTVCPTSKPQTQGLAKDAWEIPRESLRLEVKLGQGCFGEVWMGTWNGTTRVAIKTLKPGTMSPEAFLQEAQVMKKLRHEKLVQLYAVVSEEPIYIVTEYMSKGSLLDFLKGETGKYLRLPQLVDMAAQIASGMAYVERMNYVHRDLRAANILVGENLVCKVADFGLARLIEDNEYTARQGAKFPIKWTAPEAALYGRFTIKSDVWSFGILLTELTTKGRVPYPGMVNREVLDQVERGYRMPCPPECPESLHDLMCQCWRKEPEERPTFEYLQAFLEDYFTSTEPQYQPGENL
Chain of MAPK11 (human) (Q15759 whole entry, looked up): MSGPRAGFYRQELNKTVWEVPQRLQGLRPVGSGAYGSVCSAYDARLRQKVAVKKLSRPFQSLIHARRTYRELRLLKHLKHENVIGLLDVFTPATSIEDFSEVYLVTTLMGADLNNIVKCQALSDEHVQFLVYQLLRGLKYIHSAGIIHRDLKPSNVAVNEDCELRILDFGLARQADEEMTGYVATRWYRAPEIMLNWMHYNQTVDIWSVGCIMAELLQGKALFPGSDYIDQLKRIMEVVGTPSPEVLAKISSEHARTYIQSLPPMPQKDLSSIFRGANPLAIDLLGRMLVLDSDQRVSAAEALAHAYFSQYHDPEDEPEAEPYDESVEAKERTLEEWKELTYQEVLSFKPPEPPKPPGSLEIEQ
Chain of AKT2 (human), P31751 [S474D] (P31751 whole entry S474D, looked up): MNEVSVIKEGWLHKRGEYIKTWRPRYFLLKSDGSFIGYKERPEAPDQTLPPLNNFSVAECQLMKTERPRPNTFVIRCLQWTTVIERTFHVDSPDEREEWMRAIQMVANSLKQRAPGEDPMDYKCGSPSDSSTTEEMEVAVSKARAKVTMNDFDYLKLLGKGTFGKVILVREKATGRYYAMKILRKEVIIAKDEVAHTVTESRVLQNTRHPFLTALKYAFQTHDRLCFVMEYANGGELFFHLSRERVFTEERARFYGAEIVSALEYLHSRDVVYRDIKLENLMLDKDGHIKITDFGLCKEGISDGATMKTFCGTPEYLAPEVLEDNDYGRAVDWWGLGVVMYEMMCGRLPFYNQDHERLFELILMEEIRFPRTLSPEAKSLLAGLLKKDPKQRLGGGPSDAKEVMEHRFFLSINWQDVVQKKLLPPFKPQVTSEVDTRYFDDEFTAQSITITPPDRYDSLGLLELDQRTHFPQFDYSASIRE
Chain of MINK1 (human) (Q8N4C8 whole entry, looked up): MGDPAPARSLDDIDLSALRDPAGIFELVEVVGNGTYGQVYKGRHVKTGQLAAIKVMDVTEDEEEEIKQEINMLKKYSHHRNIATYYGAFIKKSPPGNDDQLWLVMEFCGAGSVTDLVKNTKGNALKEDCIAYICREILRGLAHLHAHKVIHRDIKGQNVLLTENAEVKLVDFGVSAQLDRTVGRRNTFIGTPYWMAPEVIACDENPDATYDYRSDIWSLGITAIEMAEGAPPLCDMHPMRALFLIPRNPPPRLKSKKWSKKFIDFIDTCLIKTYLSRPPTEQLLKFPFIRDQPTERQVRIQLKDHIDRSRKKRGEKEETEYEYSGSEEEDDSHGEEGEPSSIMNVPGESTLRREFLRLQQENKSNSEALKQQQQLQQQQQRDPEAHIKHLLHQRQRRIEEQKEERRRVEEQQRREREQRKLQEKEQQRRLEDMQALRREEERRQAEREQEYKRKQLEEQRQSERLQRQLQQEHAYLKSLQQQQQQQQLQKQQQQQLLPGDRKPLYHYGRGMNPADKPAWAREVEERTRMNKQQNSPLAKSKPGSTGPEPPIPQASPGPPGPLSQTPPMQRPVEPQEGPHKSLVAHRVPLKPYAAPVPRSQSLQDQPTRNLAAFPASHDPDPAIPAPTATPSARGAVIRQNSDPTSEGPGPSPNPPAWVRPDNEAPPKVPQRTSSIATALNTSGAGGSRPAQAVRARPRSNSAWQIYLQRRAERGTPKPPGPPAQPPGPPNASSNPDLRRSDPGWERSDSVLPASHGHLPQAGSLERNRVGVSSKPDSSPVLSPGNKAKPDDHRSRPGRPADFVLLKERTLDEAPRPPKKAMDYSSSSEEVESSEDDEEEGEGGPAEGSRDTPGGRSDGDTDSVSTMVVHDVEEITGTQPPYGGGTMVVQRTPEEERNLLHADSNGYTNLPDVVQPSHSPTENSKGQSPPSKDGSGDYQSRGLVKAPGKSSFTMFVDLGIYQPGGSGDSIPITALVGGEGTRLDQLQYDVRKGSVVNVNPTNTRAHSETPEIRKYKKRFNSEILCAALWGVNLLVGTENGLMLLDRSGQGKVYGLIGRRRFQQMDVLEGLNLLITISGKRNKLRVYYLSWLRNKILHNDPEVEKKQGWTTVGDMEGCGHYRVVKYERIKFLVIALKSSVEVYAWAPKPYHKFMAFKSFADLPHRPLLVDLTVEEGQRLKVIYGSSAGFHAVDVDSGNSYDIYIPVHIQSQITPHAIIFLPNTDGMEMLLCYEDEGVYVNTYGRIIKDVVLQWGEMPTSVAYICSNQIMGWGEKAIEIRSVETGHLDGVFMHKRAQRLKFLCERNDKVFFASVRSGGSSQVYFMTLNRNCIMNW
Chain of MELK (human) (Q14680 whole entry, looked up): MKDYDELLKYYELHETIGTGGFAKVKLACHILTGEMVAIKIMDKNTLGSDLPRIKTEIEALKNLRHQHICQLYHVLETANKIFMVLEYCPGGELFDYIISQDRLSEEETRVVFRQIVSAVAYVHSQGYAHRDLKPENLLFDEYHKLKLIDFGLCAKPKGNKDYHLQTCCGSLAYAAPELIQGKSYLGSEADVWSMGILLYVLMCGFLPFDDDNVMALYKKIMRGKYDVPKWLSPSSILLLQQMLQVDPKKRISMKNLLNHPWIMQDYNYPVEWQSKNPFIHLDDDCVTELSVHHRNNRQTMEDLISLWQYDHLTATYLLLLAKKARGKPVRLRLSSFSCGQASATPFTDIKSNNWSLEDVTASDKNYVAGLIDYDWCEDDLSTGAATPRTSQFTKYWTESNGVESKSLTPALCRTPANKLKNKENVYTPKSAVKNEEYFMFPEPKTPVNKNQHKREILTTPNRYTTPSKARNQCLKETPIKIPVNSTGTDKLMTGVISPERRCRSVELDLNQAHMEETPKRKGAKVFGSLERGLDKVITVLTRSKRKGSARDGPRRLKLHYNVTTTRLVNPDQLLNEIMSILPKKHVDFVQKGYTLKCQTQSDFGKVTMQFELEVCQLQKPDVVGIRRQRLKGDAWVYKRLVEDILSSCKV

For `O=C(O)c1ccc(-c2c[nH]c3ncc(-c4ccccc4)cc23)cc1C1CCCC1`, the residual activity ([1]; compound 0.1 µM) was 86%, the residual activity ([1]; compound 1.0 µM) was 98% and the residual activity ([1]; compound 10.0 µM) was 74%. For the same compound, the residual activity (BRSK1 (human)) was 84%, the residual activity (CAMKK2 (human); compound 0.1 µM) was 11% and the residual activity (CAMKK2 (human); compound 1.0 µM) was 2%. The residual activity (CAMKK2 (human); compound 10.0 µM) was 2%, the residual activity (CLK2 (human)) was 65% and the residual activity (CSK (human); compound 0.1 µM) was 99%. For the same compound, the residual activity (CSK (human); compound 1.0 µM) was 96%, the residual activity (CSK (human); compound 10.0 µM) was 98% and the residual activity (CSNK1D (human); compound 0.1 µM) was 70%. For the same compound, the residual activity (CSNK1D (human); compound 1.0 µM) was 12%, the residual activity (CSNK1D (human); compound 10.0 µM) was 3% and the residual activity (DYRK3 (human); compound 0.1 µM) was 79%. It also gave a residual activity (DYRK3 (human); compound 1.0 µM) of 57%, a residual activity (DYRK3 (human); compound 10.0 µM) of 17% and a residual activity (EPHA2 (human); compound 0.1 µM) of 92%. It also gave a residual activity (EPHA2 (human); compound 1.0 µM) of 97%, a residual activity (EPHA2 (human); compound 10.0 µM) of 85% and a residual activity (FGFR1 (human); compound 0.1 µM) of 99%. For the same compound, the residual activity (FGFR1 (human); compound 1.0 µM) was 77%, the residual activity (FGFR1 (human); compound 10.0 µM) was 27% and the residual activity (FLT1 (human); compound 0.1 µM) was 98%. The residual activity (FLT1 (human); compound 1.0 µM) was 63%, the residual activity (FLT1 (human); compound 10.0 µM) was 15% and the residual activity (GSK3B (human); compound 0.1 µM) was 94%. The residual activity (GSK3B (human); compound 1.0 µM) was 78%, the residual activity (GSK3B (human); compound 10.0 µM) was 23% and the residual activity (HIPK1 (human)) was 99%. It also gave a residual activity (HIPK3 (human)) of 100%, a residual activity (IGF1R (human); compound 0.1 µM) of 100% and a residual activity (IGF1R (human); compound 1.0 µM) of 103%. The residual activity (IGF1R (human); compound 10.0 µM) was 18%, the residual activity (INSR (human); compound 0.1 µM) was 111% and the residual activity (INSR (human); compound 1.0 µM) was 100%. It also gave a residual activity (INSR (human); compound 10.0 µM) of 68%, a residual activity (IRAK4 (human); compound 0.1 µM) of 20% and a residual activity (IRAK4 (human); compound 1.0 µM) of 12%. For the same compound, the residual activity (IRAK4 (human); compound 10.0 µM) was 12%, the residual activity (JAK2 JH1 JH2 (human)) was 24% and the residual activity (LCK (mouse); compound 0.1 µM) was 109%. It also gave a residual activity (LCK (mouse); compound 1.0 µM) of 79%, a residual activity (MAP3K1 (human)) of 92% and a residual activity (MAP3K7 TAB1 (human)) of 115%. The residual activity (MAPK11 (human); compound 0.1 µM) was 109%, the residual activity (MAPK11 (human); compound 1.0 µM) was 112% and the residual activity (MAPK11 (human); compound 10.0 µM) was 71%. For the same compound, the residual activity (MAPK14 (human); compound 0.1 µM) was 94%, the residual activity (MAPK14 (human); compound 1.0 µM) was 119% and the residual activity (MAPK14 (human); compound 10.0 µM) was 106%. It also gave a residual activity (MAPK15 (human); compound 0.1 µM) of 23%, a residual activity (MAPK15 (human); compound 1.0 µM) of 32% and a residual activity (MAPK15 (human); compound 10.0 µM) of 23%. It also gave a residual activity (MAPKAPK5 (human); compound 0.1 µM) of 107%, a residual activity (MAPKAPK5 (human); compound 1.0 µM) of 77% and a residual activity (MAPKAPK5 (human); compound 10.0 µM) of 73%. For the same compound, the residual activity (MARK1 (human)) was 97%, the residual activity (MELK (human); compound 0.1 µM) was 100% and the residual activity (MELK (human); compound 1.0 µM) was 27%. The residual activity (MELK (human); compound 10.0 µM) was 8%, the residual activity (MINK1 (human); compound 0.1 µM) was 68% and the residual activity (MINK1 (human); compound 1.0 µM) was 19%. The residual activity (MINK1 (human); compound 10.0 µM) was 2%, the residual activity (NTRK1 (human)) was 29% and the residual activity (PRKCZ (human); compound 0.1 µM) was 96%. It also gave a residual activity (PRKCZ (human); compound 1.0 µM) of 105%, a residual activity (PRKCZ (human); compound 10.0 µM) of 87% and a residual activity (RIPK2 (human)) of 55%. For the same compound, the residual activity (ROCK2 (rat); compound 0.1 µM) was 84%, the residual activity (ROCK2 (rat); compound 1.0 µM) was 59% and the residual activity (ROCK2 (rat); compound 10.0 µM) was 33%. The residual activity (RPS6KA3 KD1 KD2 (human); compound 0.1 µM) was 96%, the residual activity (RPS6KA3 KD1 KD2 (human); compound 1.0 µM) was 97% and the residual activity (SRC (human); compound 0.1 µM) was 93%. The residual activity (SRC (human); compound 1.0 µM) was 102%, the residual activity (SRC (human); compound 10.0 µM) was 44% and the residual activity ([2]; compound 0.1 µM) was 86%. It also gave a residual activity ([2]; compound 1.0 µM) of 89% and a residual activity (TAOK1 (human)) of 98%.
